Results taken from patent publication US9926321B2, “Hsp90 inhibitors” (Sloan-Kettering Institute for Cancer Research, priority 2011, dated 2018).
Where two headings read alike, the source gives them in different places.

Experiments:
[1] = system: Hsp90 (SKBr3 lysate); experiment: Hsp90 binding assay (fluorescence polarization, cy3B-GM displacement), human cancer cell lysate; settings: lysate not given
Protocol: (§1) For the binding studies, fluorescence polarization (FP) assays w-re performed similarly as was previously reported [Du et al. (2007) “High-throughput screening fluorescence polarization assay for tumor-specific Hsp90” J. Biomol. Screen 12:915-924]. Briefly, FP measurements were performed on an Analyst GT instrument (Molecular Devices, Sunnyvale, Calif.). Measurements were taken in black 96-well microtiter plates (Corning #3650) where both the excitation and the emission occurred from the top of the well. A stock of 10 μM cy3B-GM was prepared in DMSO and diluted with HFB buffer (20 mM Hepes (K), pH 7.3, 50 mM KCl, 2 mM DTT, 5 mM MgCl2, 20 mM Na2MoO4, and 0.01% NP40 with 0.1 mg/mL BGG). The test compounds were dissolved in DMSO and added at several concentrations to the HFB assay buffer containing both 6 nM cy3B-GM and transgenic mouse brain lysate (6 μg JNPL3 lysate) or human cancer cell lysate (3 μg SKBr3 lysate) in a final volume of 100 μL. Drugs were added to triplicate wells. Free cy3B-GM (6 nM cy3B-GM), bound cy3B-GM (6 nM cy3B-GM+lysate, as indicated above) and buffer only containing wells (background) were included as controls in each plate. Plates were incubated on a shake at 4° C., and polarization values measured at 24 h. Percentage inhibition was calculated as follows: (% Control)=100−((mPc−mPf)/(mPb−mPf))×100, where mPc is the recorded mP from compound wells, mPf is the average recorded mP from cy3B-GM-only wells, and mPb is the average recorded mP from wells containing both cy3B-GM and lysate, and plotted against values of competitor concentrations. The inhibitor concentration at which 50% of bound cy3B-GM was displaced was obtained by fitting the data using a nonlinear regression analysis as implemented in Prism 4.0 (GraphPad Software).

[2] = system: Hsp90; experiment: as above; settings: fluorescence polarization, cy3B-GM displacement; the table does not say which lysate (SKBr3 or JNPL3)
Protocol: as §1

[3] = target: T1, hERG (Homo sapiens, UniProt Q12809); experiment: hERG fluorescence polarization assay (Predictor hERG kit); format: binding
T1 construct: purchased Invitrogen PV5365
T1 sequence (Q12809 whole entry): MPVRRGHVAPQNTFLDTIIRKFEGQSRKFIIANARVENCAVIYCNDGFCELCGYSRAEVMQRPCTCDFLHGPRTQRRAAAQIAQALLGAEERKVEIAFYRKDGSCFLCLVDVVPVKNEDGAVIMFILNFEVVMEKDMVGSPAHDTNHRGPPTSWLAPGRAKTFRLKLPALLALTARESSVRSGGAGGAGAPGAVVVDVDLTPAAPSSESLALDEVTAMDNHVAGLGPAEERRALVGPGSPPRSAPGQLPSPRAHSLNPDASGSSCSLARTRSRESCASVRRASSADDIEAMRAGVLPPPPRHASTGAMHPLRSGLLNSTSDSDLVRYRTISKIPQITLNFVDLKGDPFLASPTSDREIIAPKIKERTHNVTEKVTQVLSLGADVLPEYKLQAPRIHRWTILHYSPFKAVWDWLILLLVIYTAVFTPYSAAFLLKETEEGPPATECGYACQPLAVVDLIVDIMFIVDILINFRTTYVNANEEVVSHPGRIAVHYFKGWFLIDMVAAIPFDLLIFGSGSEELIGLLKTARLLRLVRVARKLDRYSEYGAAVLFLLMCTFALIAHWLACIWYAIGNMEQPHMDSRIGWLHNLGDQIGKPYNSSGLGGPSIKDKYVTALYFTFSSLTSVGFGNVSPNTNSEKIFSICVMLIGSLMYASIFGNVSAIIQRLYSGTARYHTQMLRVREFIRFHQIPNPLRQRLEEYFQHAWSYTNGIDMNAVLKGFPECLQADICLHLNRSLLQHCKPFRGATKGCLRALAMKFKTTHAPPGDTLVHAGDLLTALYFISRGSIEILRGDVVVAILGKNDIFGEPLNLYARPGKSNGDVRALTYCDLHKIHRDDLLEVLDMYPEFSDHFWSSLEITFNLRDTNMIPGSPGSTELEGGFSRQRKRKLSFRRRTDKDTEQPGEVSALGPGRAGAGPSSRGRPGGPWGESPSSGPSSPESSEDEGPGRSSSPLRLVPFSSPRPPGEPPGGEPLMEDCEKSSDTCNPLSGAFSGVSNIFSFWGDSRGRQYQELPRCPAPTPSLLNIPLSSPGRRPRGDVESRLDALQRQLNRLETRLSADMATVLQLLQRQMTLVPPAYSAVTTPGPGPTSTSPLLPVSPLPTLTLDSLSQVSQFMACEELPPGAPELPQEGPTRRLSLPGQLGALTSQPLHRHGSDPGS
Protocol: hERG Fluorescence Polarization Assay:
Following the manufacturer's protocol, the hERG assay was performed using Predictor hERG Fluorescence Polarization Assay kit (catalog no. PV5365) from Invitrogen. Briefly, FP measurements were performed on an Analyst GT instrument (Molecular Devices, Sunnyvale, Calif.). Measurements were taken in black 384-well plates (Corning #3677), where both the excitation and the emission occurred from the top of the well. The test compounds were dissolved in DMSO and added at several concentrations to the Predictor hERG FP assay buffer containing 4 nM Predictor hERG tracer red and 10 μL of Predictor hERG membrane in a final volume of 20 μL. Drugs were added to triplicate wells. E-4031 as positive control was included in each plate. Plates were then kept on a shaker at room temperature and polarization values were measured after 4 hrs. The inhibition concentration at which 50% of tracer red gets displaced was obtained by fitting the data using a nonlinear regression analysis as implemented in Prism 5.0 (GraphPad Software).

[4] = Predictor hERG fluorescence polarization, displacement of tracer red, read after 4 hrs, read-out: hERG assay

IC50 [2]	Compound	Hsp90 binding affinity (in words, referring to Table 12) [1]	IC50 [3, 4]	IC50 ([3]; concentration displacing 50% of Predictor hERG tracer red, read-out: hERG assay result)
51 nM	CC(C)(C)S(=O)(=O)NCCn1c(Sc2cc3c(cc2I)CCO3)nc2c(N)ncnc21 [Compound 2A-11, 2-Methyl-propane-2-sulfonic acid {2-[6-amino-8-(5-iodo-2,3-dihydro-benzofuran-6-ylsulfanyl)-purin-9-yl]-ethyl}-amide]	high level of binding affinity	–	–
68 nM	CC(C)(C)[S+]([O-])NCCn1c(Sc2cc3c(cc2I)CCO3)nc2c(N)ncnc21 (stereo not shown) [Compound 2A-12, 2-Methyl-propane-2-sulfinic acid {2-[6-amino-8-(5-iodo-2,3-dihydro-benzofuran-6-ylsulfanyl)-purin-9-yl]-ethyl}-amide]	high level of binding affinity	–	–
17 nM	CC(C)(C)[S+]([O-])NCCCn1c(Sc2cc3c(cc2I)CCO3)nc2c(N)ncnc21 (stereo not shown) [Compound 2A-26, 2-Methyl-propane-2-sulfinic acid {3-[6-amino-8-(5-iodo-2,3-dihydro-benzofuran-6-ylsulfanyl)-purin-9-yl]-propyl}-amide]	high level of binding affinity	–	–
11.8 nM	Nc1ncnc2c1nc(Sc1cc3c(cc1I)CCO3)n2CCCNC(=O)C1CC1 [Compound 2A-45, Cyclopropanecarboxylic acid {3-[6-amino-8-(5-iodo-2,3-dihydro-benzufuran-6-ylsulfanyl)-purin-9-yl]-propyl}-amide]	high level of binding affinity	–	–
3.5 nM	CS(=O)(=O)NCCn1c(Sc2cc3c(cc2I)CCC3)nc2c(N)ncnc21 [Compound 3A-10, N-{2-[6-Amino-8-(6-iodo-indan-5-ylsulfanyl)-purin-9-yl]-ethyl}-methanesulfonamide]	high level of binding affinity	–	–
68 nM	CC(C)(C)S(=O)(=O)NCCn1c(Sc2cc3c(cc2I)CCC3)nc2c(N)ncnc21 [Compound 3A-11, 2-Methyl-propane-2-sulfonic acid {2-[6-amino-8-(6-iodo-indan-5-ylsulfanyl)-purin-9-yl]-ethyl}-amide]	high level of binding affinity	–	–
8.1 nM	CS(=O)(=O)NCCCn1c(Sc2cc3c(cc2I)CCC3)nc2c(N)ncnc21 [Compound 3A-24, N-{3-[6-Amino-8-(6-iodo-indan-5-ylsulfanyl)-purin-9-yl]-propyl}-methanesulfonamide]	high level of binding affinity	–	–
20.1 nM	CC(C)(C)[S+]([O-])NCCCn1c(Sc2cc3c(cc2I)CCC3)nc2c(N)ncnc21 (stereo not shown) [Compound 3A-26, 2-Methyl-propane-2-sulfinic acid {3-[6-amino-8-(6-iodo-indan-5-ylsulfanyl)-purin-9-yl]-propyl}-amide]	high level of binding affinity	–	–
37.4 nM	C#Cc1cc2c(cc1Sc1nc3c(N)ncnc3n1CCCNS(C)(=O)=O)CCC2 [Compound 3A-43, N-{3-[6-Amino-8-(6-ethynyl-indan-5-ylsulfanyl)-purin-9-yl]-propyl}-methanesulfonamide]	high level of binding affinity	–	–

More lines, now with the values behind:

Compound	IC50 [2]	Hsp90 binding affinity (in words, referring to Table 12) [1]	IC50 [3, 4]	IC50 ([3]; concentration displacing 50% of Predictor hERG tracer red, read-out: hERG assay result)
CC(C)NS(=O)(=O)CCCn1c(Sc2cc3c(cc2I)OCO3)nc2c(N)ncnc21 [Compound 1A-15, 3-[6-Amino-8-(6-iodo-benzo[1,3]dioxol-5-ylsulfanyl)-purin-9-yl]-propane-1-sulfonic acid isopropylamide]	20.5 nM	high level of binding affinity	> 100000 nM	–
CC(C)S(=O)(=O)NCCCn1c(Sc2cc3c(cc2I)OCO3)nc2c(N)ncnc21 [Compound 1A-22, Propane-2-sulfonic acid {3-[6-amino-8-(6-iodo-benzo[1,3]dioxol-5-ylsulfanyl)-purin-9-yl]-propyl}-amide]	47 nM	high level of binding affinity	> 100000 nM	–
CS(=O)(=O)NCCCn1c(Sc2cc3c(cc2I)OCO3)nc2c(N)ncnc21 [Compound 1A-24, N-{3-[6-Amino-8-(6-iodo-benzo[1,3]dioxol-5-ylsulfanyl)-purin-9-yl]-propyl}-methanesulfonamide]	11.5 nM	high level of binding affinity	–	–
CC(C)(C)[S+]([O-])NCCCn1c(Sc2cc3c(cc2I)OCO3)nc2c(N)ncnc21 (stereo not shown) [Compound 1A-26, 2-Methyl-propane-2-sulfinic acid {3-[6-amino-8-(6-iodo-benzo[1,3]dioxol-5-ylsulfanyl)-purin-9-yl]-propyl}-amide]	12 nM	–	> 100000 nM	–
CC(C)(C)C(=O)NCCCn1c(Sc2cc3c(cc2I)OCO3)nc2c(N)ncnc21 [Compound 1A-43, N-(3-(6-amino-8-((6-iodobenzo[d][1,3]dioxol-5-yl)thio)-9H-purin-9-yl)propyl)pivalamide]	11 nM	–	> 100000 nM	–
Nc1ncnc2c1nc(Sc1cc3c(cc1I)OCO3)n2CCCNC(=O)C1CC1 [Compound 1A-45, N-(3-(6-amino-8-((6-iodobenzo[d][1,3]dioxol-5-yl)thio)-9H-purin-9-yl)propyl)cyclopropane carboxamide]	9.8 nM	–	> 100000 nM	–
CC(C)(O)C(=O)NCCCn1c(Sc2cc3c(cc2I)OCO3)nc2c(N)ncnc21 [Compound 1A-48, N-(3-(6-Amino-8-((6-iodobenzo[d][1,3]dioxol-5-yl)thio)-9H-purin-9-yl)propyl)-2-hydroxy-2-methylpropanamide]	22.1 nM	–	12000 nM	–
C#Cc1cc2c(cc1Sc1nc3c(N)ncnc3n1CCCNS(=O)(=O)C1CC1)OCO2 [Compound 1B-28, Cyclopropanesulfonic acid {3-[6-amino-8-(6-ethynyl-benzo[1,3]dioxol-5-ylsulfanyl)-purin-9-yl]-propyl}-amide]	53 nM	high level of binding affinity	> 100000 nM	–
C#Cc1cc2c(cc1Sc1nc3c(N)ncnc3n1CCCNC(=O)C(C)(C)C)OCO2 [Compound 1B-43, N-{3-[6-Amino-8-(6-ethynyl-benzo[1,3]dioxol-5-ylsulfanyl)-purin-9-yl]-propyl}-2,2-dimethyl-propionamide]	28 nM	high level of binding affinity	> 100000 nM	–
C#Cc1cc2c(cc1Sc1nc3c(N)ncnc3n1CCCNC(=O)C1CC1)OCO2 [Compound 1B-45, Cyclopropanecarboxylic acid {3-(6-amino-8-(6-ethynyl-benzo[1,3]dioxol-5-ylsulfanyl)-purin-9-yl]-propyl}-amide]	37 nM	high level of binding affinity	> 100000 nM	–
CN(C)c1cc2c(cc1Sc1nc3c(N)ncnc3n1CCCNS(=O)(=O)C1CC1)OCO2 [Compound 1G-28, N-(3-(6-amino-8-((6-(dimethylamino)benzo[d] [1,3]dioxol-5-yl)thio)-9H-purin-9-yl)propyl)cyclopropane-sulfonamide]	22 nM	high level of binding affinity	–	–
CC(C)NCCCn1c(Sc2cc3c(cc2I)OCO3)nc2c(N)ncnc21 [PU-H71, reference compound]	–	–	–	1000 nM
